How the values were obtained:
[1] = test system: mouse monocyte-macrophage cells (ATCC TIB 67 J774A.1); assay: Cell-mediated oxidation of LDL (MDA, thiobarbituric acid assay), J774A.1 cells; assay type: cell-based; conditions: 30 μM, after 10 hours incubation, FIG. 7
Procedure: The antioxidant capacity of the compounds of the invention, on cell-mediated oxidation, was evaluated by incubating LDL and mouse monocyte-macrophage cells (ATCC TIB 67 J774A.1) with CuSO4 solution in the presence of […], lercanidipine or one of its enantiomers at several concentrations. The inhibition of formation of aldehydic breakdown products, i.e., secondary metabolites of lipid peroxidation, malonic dialdehyde (MDA), was assessed by detection of dialdehyde formation using the thiobarbituric acid assay (A. N. Hanna et al., Biochem. Pharmacol. 45: 753 (1993)).
The antioxidant capacity was evaluated by incubating ethylene-diaminetetraacetic acid free-LDL under sterile conditions with 5 μM Cu++ (100 μg Apo B/ml) in the presence of J774A.1 cells. Oxidation was stopped after 22 hours incubation by addition of butylated hydroxytoluene to the medium (final concentration 40 μM) dissolved in ethanol. […] Malonic dialdehyde equivalents were calculated using 1,1,3,3-tetramethoxypropane as the standard.
In experiments 9A and 9B, the cell-mediated oxidation effects of lercanidipine were investigated after incubation for 22 hours. […] Samples were withdrawn from the incubation medium and the oxidation product, MDA, measured as described above.

enzyme ACAT = target: T1, enzyme ACAT (Mus musculus, UniProt Q61263); assay: Cholesterol esterification in cholesterol ester loaded macrophages; assay type: cell-based; conditions: macrophages preloaded with cholesteryl esters
T1 construct: Mouse peritoneal macrophages were obtained by peritoneal lavage from mice; endogenous in cells; host or cells: peritoneal macrophages of Balb/c mice, three days after intraperitoneal thioglycolate
T1 sequence (Q61263 1-540): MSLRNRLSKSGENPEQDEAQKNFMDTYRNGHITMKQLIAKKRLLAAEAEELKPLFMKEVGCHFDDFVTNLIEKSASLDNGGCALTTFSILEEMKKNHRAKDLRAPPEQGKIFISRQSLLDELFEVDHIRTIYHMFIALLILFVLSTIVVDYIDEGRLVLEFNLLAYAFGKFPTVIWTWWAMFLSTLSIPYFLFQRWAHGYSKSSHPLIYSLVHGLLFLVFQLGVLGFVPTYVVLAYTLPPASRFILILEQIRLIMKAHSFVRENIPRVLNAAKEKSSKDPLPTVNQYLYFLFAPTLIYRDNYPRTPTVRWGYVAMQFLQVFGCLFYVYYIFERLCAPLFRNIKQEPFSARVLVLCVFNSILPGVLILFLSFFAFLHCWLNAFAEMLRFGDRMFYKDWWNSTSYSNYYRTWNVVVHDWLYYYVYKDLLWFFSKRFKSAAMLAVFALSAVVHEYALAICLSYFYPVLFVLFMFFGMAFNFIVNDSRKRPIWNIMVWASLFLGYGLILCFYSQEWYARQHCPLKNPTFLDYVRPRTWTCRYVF
Procedure: Cholesterol esterification induced by AcLDL in mouse peritoneal macrophages was investigated as follows. Mouse peritoneal macrophages were obtained by peritoneal lavage from mice (Balb/c Charles River, Calco, Italy) three days after intraperitoneal injection of thioglycolate. Cells (2×3×10^6) were plated in 35 mm wells with Dulbecco's minimum essential medium containing 10% fetal bovine serum. After 3 hours, the dishes were washed to eliminate unattached cells and maintained in Dulbecco's minimum essential medium plus 10% fetal bovine serum for 24 hours before use. After cell plating, experiments were performed at 37° C. in serum free Dulbecco's minimum essential medium containing 0.2% essentially fatty acid-free bovine serum albumin, AcLDL, a specific ACAT inhibitor, S-58035 (See C. A. Ross et al., J. Biol, Chem. 259: 815-819 (1984)), and lercanidipine, or the lercanidipine enantiomers indicated. Human LDL (d=1.019-1.063 g/ml) were isolated from plasma of healthy volunteers by sequential ultracentrifugation (Beckman L5-50, Palo Alto, Calif.). For acetylation, LDL were dialyzed against 0. 15 M NaCl , pH 7.4, diluted with an equal volume of saturated sodium acetate and treated with acetic anhydride. For [^125 1]AcLDL, lipoproteins were labelled with sodium [^125 I]iodide desalted by gel filtration on Sephadex G-25 eluted with phosphate buffered saline. Specific activity was 100-200 cpm/ng of protein. Trichloroacetic acid non-precipitable radioactivity was below 2% of total. All lipoproteins were sterile filtered. The cells were incubated for 24 hours with the tested compounds. […] Cholesterol esterification was measured after addition of [1-^14 C] oleic acid (0.68 mCi sample) complexed with bovine serum albumin during the last 1 or 2 hours of incubation by subsequent determination of radioactivity associated with cellular cholesteryl esters. […]
Cells, prepared according to the procedure in Example 6A, are loaded with cholesteryl esters by exposure for 24 hours to a medium containing 50 μg/ml acetyl LDL. ACAT inhibition was then determined as in Example 6A.

Structure (SMILES)	inhibition of lipid oxidation (MDA) over time [1]	relative potency, cholesterol esterification (enzyme ACAT)	IC50 (enzyme ACAT; FIG. 4) [µM]
COC(=O)C1=C(C)NC(C)=C(C(=O)OC(C)(C)CN(C)CCC(c2ccccc2)c2ccccc2)C1c1cccc([N+](=O)[O-])c1 (racemic) [LE, methyl 1,1,N-trimethyl-N-(3,3-diphenylpropyl)-2-aminoethyl 1,4-dihydro-2,6-dimethyl-4-(3-nitrophenyl)-pyridine-3,5-dicarboxylate]	very high inhibition of lipid oxidation		
COC(=O)C1=C(C)NC(C)=C(C(=O)OC(C)(C)CN(C)CCC(c2ccccc2)c2ccccc2)[C@@H]1c1cccc([N+](=O)[O-])c1 [(R)-LE, (R)-(-)METHYL 1,1-N-TRIMETHYL-N-(3,3-DIPHENYLPROPYL)-2-AMINOETHYL 1,4-DIHYDRO-2,6-DIMETHYL-4-(3-NITROPHENYL)PYRIDINE-3,5-DICARBOXYLATE]		slightly more potent than the racemate	~7
COC(=O)C1=C(C)NC(C)=C(C(=O)OC(C)(C)CN(C)CCC(c2ccccc2)c2ccccc2)[C@H]1c1cccc([N+](=O)[O-])c1 [(S)-LE, (S)-(+)-METHYL 1,1-N-TRIMETHYL-N-(3,3-DIPHENYLPROPYL)-2-AMINOETHYL 1,4-DIHYDRO-2,6-DIMETHYL-4-(3-NITROPHENYL)PYRIDINE-3,5-DICARBOXYLATE]		least potent	

From patent US5912351A, “Anhydrous 1,4-Dihydropyridines and salts thereof” (Recordati, S.A. Chemical and Pharmaceutical Company, priority 1995, dated 1999)
